Measured values published in patent publication US20190231768A1, “P[…] TREATING DRUG INDUCED DYSKINESIAS” (PRILENIA THERAPEUTICS DEVELOPMENT LTD., priority 2017, published 2019).
Where two headings read alike, the source gives them in different places.

How the values were obtained:
[1] = tested on: D2R; details: for % D2R occupancy: NHP, based on 11C-raclopride PET
Excerpt: (§1) NHP σ1R occupancy data are extrapolated from in vitro binding investigations with 3H-fluspidine, known and specific σ1R tracer, against human σ1R.

[2] = tested on: human subject afflicted with a DIMD; details: 45, 90, 135 or 180 mg/day oral, add-on
[3] = tested on: human subject afflicted with LID; details: greater than 100 mg/day oral, add-on to levodopa
Excerpt: The therapy provides efficacy in treating the patient without undue adverse side effects or affecting the safety of the treatment: […]

[4] = target: T1, D2R (Rattus norvegicus, UniProt P61169); details: cited from earlier work
[5] = target: T2, σ1R (Homo sapiens, UniProt Q99720); test: in vivo
Excerpt: as §1

[6] = target: T1, D2R; test: in vivo; details: po, read-out: % D2R occupancy
Excerpt: as §1

[7] = target: σ1R (Rattus norvegicus, UniProt Q9R0C9); test: in vivo; details: po, read-out: % σ1R occupancy
Excerpt: as §1

[8] = tested on: adrenergic alpha-1; details: in the micromolar range
Description: (§2) NMDA, 5-HT6 and tachykinin NK1 receptors along with the dopamine transporter (DAT), norepinephrine transporter (NET) and serotonin transporter (SERT). The specific ligand binding to the receptors was defined as the difference between the total binding and the nonspecific binding determined in the presence of an excess of unlabeled ligand. IC50 values were determined by a non-linear, least squares regression analysis using MathIQ™ (ID Business Solutions Ltd., UK). […] Hill coefficient (nH), defining the slope of the competitive binding curve, was calculated using MathIQ™.

[9] = target: Serotonin 5-HT2A (Homo sapiens, UniProt P28223)
Description: as §2

[10] = target: Adrenergic α2A (Homo sapiens, UniProt P08913)
Description: as §2

[11] = target: Histamine H3 (Homo sapiens, UniProt Q9Y5N1)
Description: as §2

[12] = target: Dopamine transporter (DAT) (Homo sapiens, UniProt Q01959)
Description: as §2

[13] = target: Serotonin transporter (SERT) (Homo sapiens, UniProt P31645)
Description: as §2

[14] = target: Dopamine D2 (Homo sapiens, UniProt P14416)
Description: as §2

[15] = target: 5-HT6 (Homo sapiens, UniProt P50406)
Description: as §2

[16] = target: Muscarinic M2 (Homo sapiens, UniProt P08172)
Description: as §2

[17] = target: Sigma-2 (σ2R) (Homo sapiens, UniProt Q5BJF2)
Description: as §2

[18] = target: Serotonin 5-HT1A (Homo sapiens, UniProt P08908)
Description: as §2

[19] = tested on: NMDAR
Description: as §2

[20] = target: Serotonin 5-HT7 (Homo sapiens, UniProt P34969)
Description: as §2

[21] = target: Adrenergic α2C (Homo sapiens, UniProt P18825)
Description: as §2

[22] = target: Sigma-1 (σ1R) (Homo sapiens, UniProt Q99720)
Description: as §2

[23] = target: Norepinephrine transporter (NET) (Homo sapiens, UniProt P23975)
Description: as §2

[24] = target: Dopamine D3 (Homo sapiens, UniProt P35462)
Description: as §2

[25] = target: Tachykinin NK1 (Homo sapiens, UniProt P25103)
Description: as §2

[26] = target: T2, σ1R; test: in vivo; details: read-out: % σ1R occupancy

T1 sequence (P61169 whole entry): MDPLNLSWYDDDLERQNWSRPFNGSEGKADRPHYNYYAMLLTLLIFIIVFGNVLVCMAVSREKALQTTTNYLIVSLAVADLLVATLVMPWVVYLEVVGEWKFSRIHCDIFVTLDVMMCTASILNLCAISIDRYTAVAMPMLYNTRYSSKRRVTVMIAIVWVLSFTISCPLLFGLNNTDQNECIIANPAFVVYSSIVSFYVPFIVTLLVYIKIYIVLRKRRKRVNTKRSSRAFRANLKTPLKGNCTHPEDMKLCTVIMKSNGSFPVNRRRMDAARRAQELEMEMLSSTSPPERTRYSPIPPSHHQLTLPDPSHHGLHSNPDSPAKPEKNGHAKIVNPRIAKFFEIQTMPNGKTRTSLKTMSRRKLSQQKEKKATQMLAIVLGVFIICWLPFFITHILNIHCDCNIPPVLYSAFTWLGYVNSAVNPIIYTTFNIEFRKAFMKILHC
T2 sequence (Q99720 whole entry): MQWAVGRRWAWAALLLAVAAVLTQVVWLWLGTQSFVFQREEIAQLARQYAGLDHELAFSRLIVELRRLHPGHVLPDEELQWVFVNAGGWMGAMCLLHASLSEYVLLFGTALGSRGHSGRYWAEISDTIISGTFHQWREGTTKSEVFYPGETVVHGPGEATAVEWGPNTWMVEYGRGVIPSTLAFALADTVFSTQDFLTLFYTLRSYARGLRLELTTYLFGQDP
Chain of Dopamine D2 (P14416 whole entry): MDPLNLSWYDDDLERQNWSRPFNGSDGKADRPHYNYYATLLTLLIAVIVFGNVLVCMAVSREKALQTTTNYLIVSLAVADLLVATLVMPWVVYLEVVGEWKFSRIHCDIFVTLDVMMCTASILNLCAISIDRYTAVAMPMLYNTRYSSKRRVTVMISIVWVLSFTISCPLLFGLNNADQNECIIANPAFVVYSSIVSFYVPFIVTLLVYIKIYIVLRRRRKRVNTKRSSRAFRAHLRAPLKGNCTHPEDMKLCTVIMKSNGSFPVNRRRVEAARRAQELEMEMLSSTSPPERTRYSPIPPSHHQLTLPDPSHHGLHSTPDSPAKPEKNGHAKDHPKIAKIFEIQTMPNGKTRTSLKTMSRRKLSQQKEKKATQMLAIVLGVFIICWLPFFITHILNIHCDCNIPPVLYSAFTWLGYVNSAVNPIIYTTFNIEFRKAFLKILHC
Chain of Sigma-1 (σ1R) (Q99720 whole entry, species assumed): as the sequence (Q99720 whole entry) above
Chain of Serotonin 5-HT1A (P08908 whole entry): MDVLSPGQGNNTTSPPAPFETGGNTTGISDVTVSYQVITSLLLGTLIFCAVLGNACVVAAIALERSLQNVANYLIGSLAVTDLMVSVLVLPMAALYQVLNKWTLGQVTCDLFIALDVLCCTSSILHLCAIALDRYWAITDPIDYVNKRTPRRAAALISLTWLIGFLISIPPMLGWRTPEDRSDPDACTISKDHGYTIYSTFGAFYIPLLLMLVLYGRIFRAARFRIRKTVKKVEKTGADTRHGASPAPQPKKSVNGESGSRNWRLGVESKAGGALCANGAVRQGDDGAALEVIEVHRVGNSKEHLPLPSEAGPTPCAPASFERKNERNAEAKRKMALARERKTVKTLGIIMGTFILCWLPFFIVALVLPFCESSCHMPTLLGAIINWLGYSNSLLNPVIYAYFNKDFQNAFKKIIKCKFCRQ
Chain of Muscarinic M2 (P08172 whole entry): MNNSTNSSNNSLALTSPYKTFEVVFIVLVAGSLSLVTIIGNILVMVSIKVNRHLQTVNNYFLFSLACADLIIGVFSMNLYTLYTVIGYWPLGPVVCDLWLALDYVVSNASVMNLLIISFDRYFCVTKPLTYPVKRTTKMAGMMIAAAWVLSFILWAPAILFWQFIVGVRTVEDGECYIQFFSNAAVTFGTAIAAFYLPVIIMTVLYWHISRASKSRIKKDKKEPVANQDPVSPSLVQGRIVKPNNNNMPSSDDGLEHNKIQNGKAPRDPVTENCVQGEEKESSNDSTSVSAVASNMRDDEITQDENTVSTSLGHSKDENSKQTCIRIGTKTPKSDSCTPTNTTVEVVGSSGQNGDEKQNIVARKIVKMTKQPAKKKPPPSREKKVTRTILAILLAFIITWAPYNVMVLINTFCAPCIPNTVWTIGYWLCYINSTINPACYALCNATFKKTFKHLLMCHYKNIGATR
Chain of Histamine H3 (Q9Y5N1 whole entry): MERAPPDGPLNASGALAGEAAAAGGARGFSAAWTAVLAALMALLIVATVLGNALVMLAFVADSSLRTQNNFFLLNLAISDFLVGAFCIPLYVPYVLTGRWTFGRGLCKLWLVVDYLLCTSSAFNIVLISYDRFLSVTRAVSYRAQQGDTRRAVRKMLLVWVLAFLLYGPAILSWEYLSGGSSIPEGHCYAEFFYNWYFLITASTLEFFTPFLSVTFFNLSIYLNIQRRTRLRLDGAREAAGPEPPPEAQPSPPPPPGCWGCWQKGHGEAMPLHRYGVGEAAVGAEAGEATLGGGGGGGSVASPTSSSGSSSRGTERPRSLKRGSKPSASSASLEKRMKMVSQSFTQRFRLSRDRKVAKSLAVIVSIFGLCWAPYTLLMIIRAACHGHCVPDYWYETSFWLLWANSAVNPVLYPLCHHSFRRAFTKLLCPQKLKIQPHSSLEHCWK
Chain of Adrenergic α2C (P18825 whole entry): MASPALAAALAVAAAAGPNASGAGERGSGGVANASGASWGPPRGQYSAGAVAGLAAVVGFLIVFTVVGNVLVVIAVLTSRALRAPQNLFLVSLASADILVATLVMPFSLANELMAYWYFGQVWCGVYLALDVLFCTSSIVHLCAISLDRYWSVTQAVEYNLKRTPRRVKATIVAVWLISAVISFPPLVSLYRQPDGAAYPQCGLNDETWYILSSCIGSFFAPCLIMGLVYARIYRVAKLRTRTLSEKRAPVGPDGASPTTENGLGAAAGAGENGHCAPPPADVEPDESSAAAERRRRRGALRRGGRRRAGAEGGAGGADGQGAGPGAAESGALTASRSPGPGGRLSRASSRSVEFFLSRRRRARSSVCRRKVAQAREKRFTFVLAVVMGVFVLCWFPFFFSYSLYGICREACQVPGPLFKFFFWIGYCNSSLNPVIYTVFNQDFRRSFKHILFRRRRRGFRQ
Chain of Dopamine D3 (P35462 whole entry): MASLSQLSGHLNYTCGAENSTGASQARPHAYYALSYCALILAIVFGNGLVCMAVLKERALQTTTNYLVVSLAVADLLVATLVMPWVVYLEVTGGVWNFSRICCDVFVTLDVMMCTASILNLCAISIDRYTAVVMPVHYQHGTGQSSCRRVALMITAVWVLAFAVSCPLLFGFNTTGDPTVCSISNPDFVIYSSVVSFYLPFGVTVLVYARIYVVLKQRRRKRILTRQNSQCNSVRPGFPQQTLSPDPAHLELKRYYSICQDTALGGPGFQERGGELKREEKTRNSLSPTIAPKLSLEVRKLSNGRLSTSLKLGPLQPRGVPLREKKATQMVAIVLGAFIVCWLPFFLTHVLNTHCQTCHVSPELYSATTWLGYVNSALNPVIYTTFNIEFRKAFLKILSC
Chain of Norepinephrine transporter (NET) (P23975 whole entry, species assumed): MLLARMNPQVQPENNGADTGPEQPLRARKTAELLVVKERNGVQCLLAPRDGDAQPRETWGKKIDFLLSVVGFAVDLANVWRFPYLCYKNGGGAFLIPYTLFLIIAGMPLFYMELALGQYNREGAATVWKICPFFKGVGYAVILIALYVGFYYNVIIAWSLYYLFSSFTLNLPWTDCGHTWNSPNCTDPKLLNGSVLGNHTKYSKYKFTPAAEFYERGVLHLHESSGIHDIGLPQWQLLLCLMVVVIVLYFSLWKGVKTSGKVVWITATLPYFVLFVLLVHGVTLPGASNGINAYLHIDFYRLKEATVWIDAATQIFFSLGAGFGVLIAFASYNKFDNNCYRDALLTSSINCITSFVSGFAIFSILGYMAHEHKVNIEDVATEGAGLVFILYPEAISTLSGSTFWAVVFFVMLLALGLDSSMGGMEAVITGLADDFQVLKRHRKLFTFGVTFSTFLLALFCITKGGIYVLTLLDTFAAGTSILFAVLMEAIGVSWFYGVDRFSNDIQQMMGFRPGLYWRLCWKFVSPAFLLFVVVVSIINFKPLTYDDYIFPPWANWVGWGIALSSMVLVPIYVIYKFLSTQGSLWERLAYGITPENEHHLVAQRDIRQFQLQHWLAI
Chain of Serotonin 5-HT2A (P28223 whole entry): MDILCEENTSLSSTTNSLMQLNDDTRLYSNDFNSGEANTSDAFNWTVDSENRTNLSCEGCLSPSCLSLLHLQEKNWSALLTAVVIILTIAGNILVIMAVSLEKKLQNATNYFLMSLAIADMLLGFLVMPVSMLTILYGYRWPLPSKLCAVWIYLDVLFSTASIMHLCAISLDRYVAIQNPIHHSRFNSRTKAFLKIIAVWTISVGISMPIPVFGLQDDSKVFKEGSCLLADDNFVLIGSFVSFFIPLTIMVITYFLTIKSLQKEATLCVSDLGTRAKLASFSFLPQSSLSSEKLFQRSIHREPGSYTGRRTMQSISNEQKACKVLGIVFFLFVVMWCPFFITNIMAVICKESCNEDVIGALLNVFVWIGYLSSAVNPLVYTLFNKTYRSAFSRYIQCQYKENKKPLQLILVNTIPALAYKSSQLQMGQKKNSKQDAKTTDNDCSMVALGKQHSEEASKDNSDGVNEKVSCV
Chain of 5-HT6 (P50406 whole entry, species assumed): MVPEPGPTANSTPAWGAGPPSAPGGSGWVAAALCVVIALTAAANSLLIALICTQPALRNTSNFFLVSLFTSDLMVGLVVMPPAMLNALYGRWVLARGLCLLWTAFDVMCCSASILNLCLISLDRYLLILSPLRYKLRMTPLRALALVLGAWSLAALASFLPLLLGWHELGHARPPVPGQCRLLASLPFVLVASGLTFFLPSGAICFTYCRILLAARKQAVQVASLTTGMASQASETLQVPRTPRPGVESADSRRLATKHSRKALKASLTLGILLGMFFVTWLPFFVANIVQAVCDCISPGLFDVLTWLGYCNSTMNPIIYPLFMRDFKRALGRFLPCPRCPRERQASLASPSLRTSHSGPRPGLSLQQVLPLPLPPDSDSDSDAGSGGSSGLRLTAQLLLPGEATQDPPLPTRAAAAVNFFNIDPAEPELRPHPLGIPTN

## CCCN1CCC(c2cccc(S(C)(=O)=O)c2)CC1 [pridopidine, 4-(3-(methylsulfonyl)phenyl)-1-propylpiperidine]
[1]; 7 mg/kg PO
  % D2R occupancy: <15%
[1]; 15 mg/kg PO
  % D2R occupancy: 15%
[1]; 20 mg/kg PO
  % D2R occupancy: 25%
[1]; 30 mg/kg PO
  % D2R occupancy: 40%
[1]; high, effective dose (30 mg/kg, or 20 mg/kg in study 1)
  occupancy of low affinity dopamine receptors (expected): about 40%
[1]; low, ineffective doses (7 and 15 mg/kg (study 1), 20 mg/kg in study 2)
  occupancy of low affinity dopamine receptors (expected): about 10%
[1]; macaques, effective doses (20 to 30 mg/kg)
  D2R-occupancy: 25-40%
[2]
  symptoms of DIMD: effective (provides at least an additive effect or more than an additive effect)
[3]
  anti-parkinsonian benefit of L-DOPA: does not affect the anti-parkinsonian benefit of L-DOPA
  bad quality on-time evoked by levodopa: improves the bad quality on-time
  symptoms of dyskinesia: effective in improving symptoms of dyskinesia
[4]; 3 mg/kg PO
  % D2R occupancy: 0%
[4]; 15 mg/kg PO
  % D2R occupancy: 0%
[5]; NHP, 15 mg/kg PO, extrapolated from in vitro binding, 15 mg/kg
  % σ1R occupancy: >80%
[5]; po, read-out: % σ1R occupancy, NHP, 7 mg/kg PO, extrapolated from in vitro binding
  receptor occupancy at 7 mg/kg: 60 to 80%
[5]; po, read-out: % σ1R occupancy, NHP, 15 mg/kg PO, extrapolated from in vitro binding
  receptor occupancy at 15 mg/kg: > 85%
[5]; po, read-out: % σ1R occupancy, NHP, 20 mg/kg PO, extrapolated from in vitro binding
  receptor occupancy at 20 mg/kg: > 80%
[5]; po, read-out: % σ1R occupancy, NHP, 30 mg/kg PO, extrapolated from in vitro binding
  receptor occupancy at 30 mg/kg: > 80%
[5]; read-out: S1R occupancy (expected), high, effective dose (30 mg/kg, or 20 mg/kg in study 1)
  receptor occupancy at 30 mg/kg: > 80%
[5]; read-out: S1R occupancy (expected), low, ineffective doses (7 and 15 mg/kg (study 1), 20 mg/kg in study 2)
  receptor occupancy at 20 mg/kg: > 80%
[6]
  receptor occupancy at 60 mg/kg: 45%
[7]
  receptor occupancy at 60 mg/kg: > 85%
[8]
  binding: low-affinity binding
[9]
  nH (Hill coefficient): 0.81
[10]
  nH (Hill coefficient): 0.98
[11]
  nH (Hill coefficient): 0.85
[12]
  binding: no observed binding
[13]
  binding: no observed binding
[14]
  binding against the dopamine D2 receptors: negligible or no binding
  nH (Hill coefficient): 0.94
[15]
  binding: no observed binding
[16]
  nH (Hill coefficient): 0.62
[17]
  nH (Hill coefficient): 0.80
[18]
  nH (Hill coefficient): 0.72
[19]
  binding: no observed binding
[20]
  nH (Hill coefficient): 1.02
[21]
  nH (Hill coefficient): 0.76
[22]
  nH (Hill coefficient): 0.87
[22]; S1R vs D2R
  affinity for S1R compared to Dopamine D2R: approximately 100 fold
[23]
  binding: no observed binding
[24]
  nH (Hill coefficient): 0.90
[25]
  binding: no observed binding
[26]
  receptor occupancy at 45 mg: > 90%
  receptor occupancy at 90 mg: > 90%
  receptor occupancy at 150 mg: > 90%
